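Tested at 5 concentrations; 48 h exposure; 96-well plates; endpoints linearly interpolated, else capped at highest concentration. TGI marks complete inhibition of growth.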
tested on: UO-31 renal; test: NCI-60 cell line screen, 48 h

First: COc1ccc2c(c1)[n+]([O-])c(C(N)=O)c(N)[n+]2[O-]
Second: COc1c(CC(C)=O)ccc2c1C(=O)c1ccc(C=O)c(OC(C)=O)c1C2=O
The TGI of the first is higher: greater than 100 µM for the first, 41.4 µM for the second.

Clc1ccc2cccc3c2c1C1OC3c2ccccc21 (stereo unspecified) and O=c1[nH]c2cc(Cl)ccc2nc1/C(=N\Nc1ccccc1)C(O)c1ccc(Cl)c(Cl)c1 (stereo unspecified) cannot be ordered by TGI: greater than 100 µM for the first, greater than 100 µM for the second.

CN(C)C(=S)/N=c1\ssc(=S)n1C1CCCCC1 and CN(C)CC1CCCC/C1=N/O (stereo unspecified) cannot be ordered by TGI: greater than 100 µM for the first, greater than 100 µM for the second.

First: CCCCCCCCCCCCNC(=S)OC
Second: S=P1(Oc2ccccc2)NNP2(=NP(N3CC3)(N3CC3)=NP(N3CC3)(N3CC3)=N2)NN1 (stereo unspecified)
The TGI of the first is lower: 17.8 µM for the first, greater than 100 µM for the second.

tested on: SF-268 CNS; test: NCI-60 cell line screen, 48 h

Clc1ccc2cccc3c2c1C1OC3c2ccccc21 (stereo unspecified) and O=c1[nH]c2cc(Cl)ccc2nc1/C(=N\Nc1ccccc1)C(O)c1ccc(Cl)c(Cl)c1 (stereo unspecified) cannot be ordered by TGI: greater than 100 µM for the first, greater than 100 µM for the second.

CN(C)C(=S)/N=c1\ssc(=S)n1C1CCCCC1 and CN(C)CC1CCCC/C1=N/O (stereo unspecified) cannot be ordered by TGI: greater than 100 µM for the first, greater than 100 µM for the second.

First: CCCCCCCCCCCCNC(=S)OC
Second: S=P1(Oc2ccccc2)NNP2(=NP(N3CC3)(N3CC3)=NP(N3CC3)(N3CC3)=N2)NN1 (stereo unspecified)
The TGI of the first is lower: 32.8 µM for the first, greater than 100 µM for the second.

tested on: LXFL 529 NSCLC; test: NCI-60 cell line screen, 48 h

First: COc1ccc2c(c1)[n+]([O-])c(C(N)=O)c(N)[n+]2[O-]
Second: COc1c(CC(C)=O)ccc2c1C(=O)c1ccc(C=O)c(OC(C)=O)c1C2=O
The TGI of the first is higher: greater than 100 µM for the first, 19.4 µM for the second.

Clc1ccc2cccc3c2c1C1OC3c2ccccc21 (stereo unspecified) and O=c1[nH]c2cc(Cl)ccc2nc1/C(=N\Nc1ccccc1)C(O)c1ccc(Cl)c(Cl)c1 (stereo unspecified) cannot be ordered by TGI: greater than 100 µM for the first, greater than 100 µM for the second.

Compared with CN(C)C(=S)/N=c1\ssc(=S)n1C1CCCCC1, CN(C)CC1CCCC/C1=N/O (stereo unspecified) is higher in TGI: 75.6 µM for the first, greater than 100 µM for the second.

Going from CCCCCCCCCCCCNC(=S)OC to S=P1(Oc2ccccc2)NNP2(=NP(N3CC3)(N3CC3)=NP(N3CC3)(N3CC3)=N2)NN1 (stereo unspecified), the TGI rises from 28.2 µM to greater than 100 µM.

tested on: HT29 colon; test: NCI-60 cell line screen, 48 h

First: COc1ccc2c(c1)[n+]([O-])c(C(N)=O)c(N)[n+]2[O-]
Second: COc1c(CC(C)=O)ccc2c1C(=O)c1ccc(C=O)c(OC(C)=O)c1C2=O
The TGI of the first is higher: greater than 100 µM for the first, 37.9 µM for the second.

Clc1ccc2cccc3c2c1C1OC3c2ccccc21 (stereo unspecified) and O=c1[nH]c2cc(Cl)ccc2nc1/C(=N\Nc1ccccc1)C(O)c1ccc(Cl)c(Cl)c1 (stereo unspecified) cannot be ordered by TGI: greater than 100 µM for the first, greater than 100 µM for the second.

CN(C)C(=S)/N=c1\ssc(=S)n1C1CCCCC1 and CN(C)CC1CCCC/C1=N/O (stereo unspecified) cannot be ordered by TGI: greater than 100 µM for the first, greater than 100 µM for the second.

Compared with CCCCCCCCCCCCNC(=S)OC, S=P1(Oc2ccccc2)NNP2(=NP(N3CC3)(N3CC3)=NP(N3CC3)(N3CC3)=N2)NN1 (stereo unspecified) is higher in TGI: 32.8 µM for the first, greater than 100 µM for the second.

tested on: K-562 leukemia; test: NCI-60 cell line screen, 48 h

COc1ccc2c(c1)[n+]([O-])c(C(N)=O)c(N)[n+]2[O-] and COc1c(CC(C)=O)ccc2c1C(=O)c1ccc(C=O)c(OC(C)=O)c1C2=O cannot be ordered by TGI: greater than 100 µM for the first, greater than 100 µM for the second.

Clc1ccc2cccc3c2c1C1OC3c2ccccc21 (stereo unspecified) and O=c1[nH]c2cc(Cl)ccc2nc1/C(=N\Nc1ccccc1)C(O)c1ccc(Cl)c(Cl)c1 (stereo unspecified) cannot be ordered by TGI: greater than 100 µM for the first, greater than 100 µM for the second.

Compared with CN(C)C(=S)/N=c1\ssc(=S)n1C1CCCCC1, CN(C)CC1CCCC/C1=N/O (stereo unspecified) is higher in TGI: 52.6 µM for the first, greater than 100 µM for the second.

Going from CCCCCCCCCCCCNC(=S)OC to S=P1(Oc2ccccc2)NNP2(=NP(N3CC3)(N3CC3)=NP(N3CC3)(N3CC3)=N2)NN1 (stereo unspecified), the TGI rises from 39.6 µM to greater than 100 µM.

tested on: A498 renal; test: NCI-60 cell line screen, 48 h

Going from COc1ccc2c(c1)[n+]([O-])c(C(N)=O)c(N)[n+]2[O-] to COc1c(CC(C)=O)ccc2c1C(=O)c1ccc(C=O)c(OC(C)=O)c1C2=O, the TGI falls from greater than 100 µM to 80.3 µM.

Clc1ccc2cccc3c2c1C1OC3c2ccccc21 (stereo unspecified) and S=P1(Oc2ccccc2)NNP2(=NP(N3CC3)(N3CC3)=NP(N3CC3)(N3CC3)=N2)NN1 (stereo unspecified) cannot be ordered by TGI: greater than 100 µM for the first, greater than 100 µM for the second.

CN(C)C(=S)/N=c1\ssc(=S)n1C1CCCCC1 and CN(C)CC1CCCC/C1=N/O (stereo unspecified) cannot be ordered by TGI: greater than 100 µM for the first, greater than 100 µM for the second.

With CCCCCCCCCCCCNC(=S)OC the TGI was 31.6 µM.

tested on: SNB-75 CNS; test: NCI-60 cell line screen, 48 h

Going from COc1ccc2c(c1)[n+]([O-])c(C(N)=O)c(N)[n+]2[O-] to COc1c(CC(C)=O)ccc2c1C(=O)c1ccc(C=O)c(OC(C)=O)c1C2=O, the TGI falls from greater than 100 µM to 77.8 µM.

Clc1ccc2cccc3c2c1C1OC3c2ccccc21 (stereo unspecified) and O=c1[nH]c2cc(Cl)ccc2nc1/C(=N\Nc1ccccc1)C(O)c1ccc(Cl)c(Cl)c1 (stereo unspecified) cannot be ordered by TGI: greater than 100 µM for the first, greater than 100 µM for the second.

CN(C)C(=S)/N=c1\ssc(=S)n1C1CCCCC1 and CN(C)CC1CCCC/C1=N/O (stereo unspecified) cannot be ordered by TGI: greater than 100 µM for the first, greater than 100 µM for the second.

First: CCCCCCCCCCCCNC(=S)OC
Second: S=P1(Oc2ccccc2)NNP2(=NP(N3CC3)(N3CC3)=NP(N3CC3)(N3CC3)=N2)NN1 (stereo unspecified)
The TGI of the first is lower: 45 µM for the first, greater than 100 µM for the second.

tested on: A549 NSCLC; test: NCI-60 cell line screen, 48 h

COc1ccc2c(c1)[n+]([O-])c(C(N)=O)c(N)[n+]2[O-] and COc1c(CC(C)=O)ccc2c1C(=O)c1ccc(C=O)c(OC(C)=O)c1C2=O cannot be ordered by TGI: greater than 100 µM for the first, greater than 100 µM for the second.

Clc1ccc2cccc3c2c1C1OC3c2ccccc21 (stereo unspecified) and O=c1[nH]c2cc(Cl)ccc2nc1/C(=N\Nc1ccccc1)C(O)c1ccc(Cl)c(Cl)c1 (stereo unspecified) cannot be ordered by TGI: greater than 100 µM for the first, greater than 100 µM for the second.

CN(C)C(=S)/N=c1\ssc(=S)n1C1CCCCC1 and CN(C)CC1CCCC/C1=N/O (stereo unspecified) cannot be ordered by TGI: greater than 100 µM for the first, greater than 100 µM for the second.

Compared with CCCCCCCCCCCCNC(=S)OC, S=P1(Oc2ccccc2)NNP2(=NP(N3CC3)(N3CC3)=NP(N3CC3)(N3CC3)=N2)NN1 (stereo unspecified) is higher in TGI: 35 µM for the first, greater than 100 µM for the second.

tested on: HCC-2998 colon; test: NCI-60 cell line screen, 48 h

Clc1ccc2cccc3c2c1C1OC3c2ccccc21 (stereo unspecified) and O=c1[nH]c2cc(Cl)ccc2nc1/C(=N\Nc1ccccc1)C(O)c1ccc(Cl)c(Cl)c1 (stereo unspecified) cannot be ordered by TGI: greater than 100 µM for the first, greater than 100 µM for the second.

CN(C)C(=S)/N=c1\ssc(=S)n1C1CCCCC1 and CN(C)CC1CCCC/C1=N/O (stereo unspecified) cannot be ordered by TGI: greater than 100 µM for the first, greater than 100 µM for the second.

CCCCCCCCCCCCNC(=S)OC and COc1c(CC(C)=O)ccc2c1C(=O)c1ccc(C=O)c(OC(C)=O)c1C2=O are within 1.5-fold of each other in TGI: 32.9 µM for the first, 24.5 µM for the second.

S=P1(Oc2ccccc2)NNP2(=NP(N3CC3)(N3CC3)=NP(N3CC3)(N3CC3)=N2)NN1 (stereo unspecified) was tested, and the TGI was greater than 100 µM.

tested on: UACC-257 melanoma; test: NCI-60 cell line screen, 48 h

Going from COc1ccc2c(c1)[n+]([O-])c(C(N)=O)c(N)[n+]2[O-] to COc1c(CC(C)=O)ccc2c1C(=O)c1ccc(C=O)c(OC(C)=O)c1C2=O, the TGI falls from 94.6 µM to 28.3 µM (3.3-fold).

Clc1ccc2cccc3c2c1C1OC3c2ccccc21 (stereo unspecified) and O=c1[nH]c2cc(Cl)ccc2nc1/C(=N\Nc1ccccc1)C(O)c1ccc(Cl)c(Cl)c1 (stereo unspecified) cannot be ordered by TGI: greater than 100 µM for the first, greater than 100 µM for the second.

Going from CN(C)C(=S)/N=c1\ssc(=S)n1C1CCCCC1 to CN(C)CC1CCCC/C1=N/O (stereo unspecified), the TGI rises from 64.9 µM to greater than 100 µM.

Compared with CCCCCCCCCCCCNC(=S)OC, S=P1(Oc2ccccc2)NNP2(=NP(N3CC3)(N3CC3)=NP(N3CC3)(N3CC3)=N2)NN1 (stereo unspecified) is higher in TGI: 32.5 µM for the first, greater than 100 µM for the second.

tested on: RXF 393 renal; test: NCI-60 cell line screen, 48 h

Clc1ccc2cccc3c2c1C1OC3c2ccccc21 (stereo unspecified) and O=c1[nH]c2cc(Cl)ccc2nc1/C(=N\Nc1ccccc1)C(O)c1ccc(Cl)c(Cl)c1 (stereo unspecified) cannot be ordered by TGI: greater than 100 µM for the first, greater than 100 µM for the second.

CN(C)C(=S)/N=c1\ssc(=S)n1C1CCCCC1 and CN(C)CC1CCCC/C1=N/O (stereo unspecified) cannot be ordered by TGI: greater than 100 µM for the first, greater than 100 µM for the second.

CCCCCCCCCCCCNC(=S)OC and COc1c(CC(C)=O)ccc2c1C(=O)c1ccc(C=O)c(OC(C)=O)c1C2=O are within 1.5-fold of each other in TGI: 25.7 µM for the first, 25.4 µM for the second.

tested on: NCI-H460 lung; test: NCI-60 cell line screen, 48 h

First: COc1ccc2c(c1)[n+]([O-])c(C(N)=O)c(N)[n+]2[O-]
Second: COc1c(CC(C)=O)ccc2c1C(=O)c1ccc(C=O)c(OC(C)=O)c1C2=O
The TGI of the first is higher: greater than 100 µM for the first, 63.2 µM for the second.

CN(C)C(=S)/N=c1\ssc(=S)n1C1CCCCC1 and CN(C)CC1CCCC/C1=N/O (stereo unspecified) cannot be ordered by TGI: greater than 100 µM for the first, greater than 100 µM for the second.

Going from CCCCCCCCCCCCNC(=S)OC to O=c1[nH]c2cc(Cl)ccc2nc1/C(=N\Nc1ccccc1)C(O)c1ccc(Cl)c(Cl)c1 (stereo unspecified), the TGI rises from 31.2 µM to greater than 100 µM.

Work on S=P1(Oc2ccccc2)NNP2(=NP(N3CC3)(N3CC3)=NP(N3CC3)(N3CC3)=N2)NN1 (stereo unspecified) yielded a TGI greater than 100 µM.

tested on: LOX IMVI melanoma; test: NCI-60 cell line screen, 48 h

Clc1ccc2cccc3c2c1C1OC3c2ccccc21 (stereo unspecified) and O=c1[nH]c2cc(Cl)ccc2nc1/C(=N\Nc1ccccc1)C(O)c1ccc(Cl)c(Cl)c1 (stereo unspecified) cannot be ordered by TGI: greater than 100 µM for the first, greater than 100 µM for the second.

First: CCCCCCCCCCCCNC(=S)OC
Second: CN(C)CC1CCCC/C1=N/O (stereo unspecified)
The TGI of the first is lower: 28.7 µM for the first, greater than 100 µM for the second.

Compared with S=P1(Oc2ccccc2)NNP2(=NP(N3CC3)(N3CC3)=NP(N3CC3)(N3CC3)=N2)NN1 (stereo unspecified), COc1c(CC(C)=O)ccc2c1C(=O)c1ccc(C=O)c(OC(C)=O)c1C2=O is lower in TGI: greater than 100 µM for the first, 40.3 µM for the second.

tested on: OVCAR-5 ovarian; test: NCI-60 cell line screen, 48 h

Going from COc1ccc2c(c1)[n+]([O-])c(C(N)=O)c(N)[n+]2[O-] to COc1c(CC(C)=O)ccc2c1C(=O)c1ccc(C=O)c(OC(C)=O)c1C2=O, the TGI falls from greater than 100 µM to 30.3 µM.

Clc1ccc2cccc3c2c1C1OC3c2ccccc21 (stereo unspecified) and O=c1[nH]c2cc(Cl)ccc2nc1/C(=N\Nc1ccccc1)C(O)c1ccc(Cl)c(Cl)c1 (stereo unspecified) cannot be ordered by TGI: greater than 100 µM for the first, greater than 100 µM for the second.

CN(C)C(=S)/N=c1\ssc(=S)n1C1CCCCC1 and CN(C)CC1CCCC/C1=N/O (stereo unspecified) cannot be ordered by TGI: greater than 100 µM for the first, greater than 100 µM for the second.

First: CCCCCCCCCCCCNC(=S)OC
Second: S=P1(Oc2ccccc2)NNP2(=NP(N3CC3)(N3CC3)=NP(N3CC3)(N3CC3)=N2)NN1 (stereo unspecified)
The TGI of the first is lower: 30.9 µM for the first, greater than 100 µM for the second.

tested on: EKVX NSCLC; test: NCI-60 cell line screen, 48 h

COc1ccc2c(c1)[n+]([O-])c(C(N)=O)c(N)[n+]2[O-] and Clc1ccc2cccc3c2c1C1OC3c2ccccc21 (stereo unspecified) cannot be ordered by TGI: greater than 100 µM for the first, greater than 100 µM for the second.

CN(C)C(=S)/N=c1\ssc(=S)n1C1CCCCC1 showed a TGI greater than 100 µM.

— PubChem BioAssay (NCI)
